# Data taken from ChEMBL document CHEMBL1649565, “Besifloxacin, a novel fluoroquinolone, has broad-spectrum in vitro activity against aerobic and anaerobic bacteria” (Antimicrob Agents Chemother, 2009).
# Calls of active or inactive are those of the source. The calls are words filed in the database; no cut-off is given here.
# What was measured:
# Format in all cases: functional
# Enterococcus faecalis = experiment: Antibacterial activity against vancomycin- resistant Enterococcus faecalis by CLSI M100-S18 method
# Enterococcus faecium = experiment: Antibacterial activity against vancomycin- resistant Enterococcus faecium by CLSI M100-S18 method
# Staphylococcus aureus [1] = experiment: Antibacterial activity against ciprofloxacin-susceptible and methicillin-resistant Staphylococcus aureus by CLSI M100-S18 method
# Staphylococcus aureus [2] = experiment: Antibacterial activity against non-ciprofloxacin-susceptible and methicillin-susceptible Staphylococcus aureus by CLSI M100-S18 method
# [3] = test system: Staphylococcus epidermidis; experiment: Antibacterial activity against ciprofloxacin-susceptible and methicillin-resistant Staphylococcus epidermidis by CLSI M100-S18 method
# [4] = test system: Staphylococcus haemolyticus; experiment: Antibacterial activity against Staphylococcus haemolyticus by CLSI M100-S18 method
# [5] = test system: Staphylococcus lugdunensis; experiment: Antibacterial activity against Staphylococcus lugdunensis by CLSI M100-S18 method
# Staphylococcus warneri [6] = experiment: Antibacterial activity against Staphylococcus warneri by CLSI M100-S18 method
# Streptococcus agalactiae = experiment: Antibacterial activity against Streptococcus agalactiae by CLSI M100-S18 method
# [7] = Antibacterial activity against Lancefield Streptococcus sp. 'group C' by CLSI M100-S18 method
# Streptococcus sp. = experiment: Antibacterial activity against Lancefield Streptococcus sp. group F by CLSI M100-S18 method
# Streptococcus pneumoniae [8] = experiment: Antibacterial activity against levofloxacin-susceptible Streptococcus pneumoniae by CLSI M100-S18 method
# Streptococcus pneumoniae [9] = experiment: Antibacterial activity against non-levofloxacin susceptible Streptococcus pneumoniae by CLSI M100-S18 method
# Streptococcus pyogenes = experiment: Antibacterial activity against Streptococcus pyogenes by CLSI M100-S18 method
# Streptococcus equinus = experiment: Antibacterial activity against Streptococcus bovis by CLSI M100-S18 method
# [10] = test system: Streptococcus intermedius; experiment: Antibacterial activity against Streptococcus intermedius by CLSI M100-S18 method
# Streptococcus oralis = experiment: Antibacterial activity against Streptococcus oralis by CLSI M100-S18 method
# Streptococcus salivarius = experiment: Antibacterial activity against Streptococcus salivarius by CLSI M100-S18 method
# Streptococcus sanguinis = experiment: Antibacterial activity against Streptococcus sanguinis by CLSI M100-S18 method
# Acinetobacter lwoffii = experiment: Antibacterial activity against Acinetobacter lwoffii by CLSI M7-A7 method
# Citrobacter koseri = experiment: Antibacterial activity against Citrobacter koseri by CLSI M7-A7 method
# Enterobacter cloacae = experiment: Antibacterial activity against Enterobacter cloacae by CLSI M7-A7 method
# Haemophilus influenzae [11] = experiment: Antibacterial activity against ciprofloxacin-susceptible Haemophilus influenzae by CLSI M7-A7 method
# Haemophilus influenzae [12] = experiment: Antibacterial activity against non-ciprofloxacin-susceptible Haemophilus influenzae by CLSI M7-A7 method
# Klebsiella oxytoca = experiment: Antibacterial activity against Klebsiella oxytoca by CLSI M7-A7 method
# Klebsiella pneumoniae = experiment: Antibacterial activity against Klebsiella pneumoniae by CLSI M7-A7 method
# Legionella pneumophila = experiment: Antibacterial activity against Legionella pneumophila by CLSI M7-A7 method
# Moraxella catarrhalis = experiment: Antibacterial activity against Moraxella catarrhalis by CLSI M7-A7 method
# Proteus mirabilis [13] = experiment: Antibacterial activity against Proteus mirabilis by CLSI M7-A7 method
# Proteus vulgaris = experiment: Antibacterial activity against Proteus vulgaris by CLSI M7-A7 method
# Pseudomonas aeruginosa = experiment: Antibacterial activity against ciprofloxacin-susceptible Pseudomonas aeruginosa by CLSI M7-A7 method
# Serratia marcescens [14] = experiment: Antibacterial activity against Serratia marcescens by CLSI M7-A7 method
# [15] = test system: Stenotrophomonas maltophilia; experiment: Antibacterial activity against non-levofloxacin susceptible Stenotrophomonas maltophilia by CLSI M7-A7 method
# Staphylococcus aureus [16] = experiment: Antibacterial activity against ciprofloxacin-susceptible and methicillin-resistant Staphylococcus aureus assessed as percent susceptible isolates by CLSI M100-S18 method
# Staphylococcus aureus [17] = experiment: Antibacterial activity against non-ciprofloxacin-susceptible and methicillin-susceptible Staphylococcus aureus assessed as percent susceptible isolates by CLSI M100-S18 method
# [18] = test system: Staphylococcus epidermidis; experiment: Antibacterial activity against ciprofloxacin-susceptible and methicillin-resistant Staphylococcus epidermidis assessed as percent susceptible isolates by CLSI M100-S18 method
# [19] = test system: Staphylococcus epidermidis; experiment: Antibacterial activity against non-ciprofloxacin-susceptible and methicillin-susceptible Staphylococcus epidermidis assessed as percent susceptible isolates by CLSI M100-S18 method
# Staphylococcus hominis = experiment: Antibacterial activity against Staphylococcus hominis assessed as percent susceptible isolates by CLSI M100-S18 method
# [20] = test system: Staphylococcus lugdunensis; experiment: Antibacterial activity against Staphylococcus lugdunensis assessed as percent susceptible isolates by CLSI M100-S18 method
# [21] = test system: Staphylococcus saprophyticus; experiment: Antibacterial activity against Staphylococcus saprophyticus assessed as percent susceptible isolates by CLSI M100-S18 method
# Staphylococcus warneri [22] = experiment: Antibacterial activity against Staphylococcus warneri assessed as percent susceptible isolates by CLSI M100-S18 method
# Citrobacter freundii = experiment: Antibacterial activity against Citrobacter freundii assessed as percent susceptible isolates by CLSI M7-A7 method
# Haemophilus influenzae [23] = experiment: Antibacterial activity against non-ciprofloxacin-susceptible Haemophilus influenzae assessed as percent susceptible isolates by CLSI M7-A7 method
# Proteus mirabilis [24] = experiment: Antibacterial activity against Proteus mirabilis assessed as percent susceptible isolates by CLSI M7-A7 method
# Serratia marcescens [25] = experiment: Antibacterial activity against levofloxacin susceptible Serratia marcescens assessed as percent susceptible isolates by CLSI M7-A7 method
# [26] = test system: Stenotrophomonas maltophilia; experiment: Antibacterial activity against levofloxacin-susceptible Stenotrophomonas maltophilia by CLSI M7-A7 method
smiles,measurement,setting,value
N[C@@H]1CCCCN(c2c(F)cc3c(=O)c(C(=O)O)cn(C4CC4)c3c2Cl)C1 [BESIFLOXACIN],MIC50,Enterococcus faecalis,0.12 µg/mL
same,MIC90,Enterococcus faecalis,2 µg/mL
same,MIC50,Enterococcus faecium,2 µg/mL
same,MIC90,Enterococcus faecium,8 µg/mL
same,MIC,Staphylococcus aureus [1],0.015 µg/mL
same,MIC50,Staphylococcus aureus [1],0.015 µg/mL
same,MIC90,Staphylococcus aureus [1],0.12 µg/mL
same,MIC50,Staphylococcus aureus [2],0.5 µg/mL
same,MIC90,Staphylococcus aureus [2],4 µg/mL
same,MIC50,[3],0.03 µg/mL
same,MIC50,[4],0.5 µg/mL
same,MIC90,[4],1 µg/mL
same,MIC50,[5],0.06 µg/mL
same,MIC90,[5],0.5 µg/mL
same,MIC50,Staphylococcus warneri [6],0.06 µg/mL
same,MIC90,Staphylococcus warneri [6],1 µg/mL
same,MIC50,Streptococcus agalactiae,0.06 µg/mL
same,MIC90,Streptococcus agalactiae,0.06 µg/mL
same,MIC50,[7],0.03 µg/mL
same,MIC90,[7],0.06 µg/mL
same,MIC50,Streptococcus sp.,0.03 µg/mL
same,MIC90,Streptococcus sp.,0.06 µg/mL
same,MIC50,Streptococcus pneumoniae [8],0.03 µg/mL
same,MIC90,Streptococcus pneumoniae [8],0.06 µg/mL
same,MIC50,Streptococcus pneumoniae [9],0.5 µg/mL
same,MIC90,Streptococcus pneumoniae [9],0.5 µg/mL
same,MIC,Streptococcus pyogenes,0.03 µg/mL
same,MIC50,Streptococcus pyogenes,0.03 µg/mL
same,MIC90,Streptococcus pyogenes,0.06 µg/mL
same,MIC50,Streptococcus equinus,0.06 µg/mL
same,MIC90,Streptococcus equinus,0.12 µg/mL
same,MIC50,[10],0.06 µg/mL
same,MIC90,[10],0.12 µg/mL
same,MIC50,Streptococcus oralis,0.06 µg/mL
same,MIC90,Streptococcus oralis,0.12 µg/mL
same,MIC50,Streptococcus salivarius,0.06 µg/mL
same,MIC90,Streptococcus salivarius,0.12 µg/mL
same,MIC50,Streptococcus sanguinis,0.06 µg/mL
same,MIC90,Streptococcus sanguinis,0.12 µg/mL
same,MIC50,Acinetobacter lwoffii,0.25 µg/mL
same,MIC90,Acinetobacter lwoffii,16 µg/mL
same,MIC50,Citrobacter koseri,0.06 µg/mL
same,MIC90,Citrobacter koseri,0.25 µg/mL
same,MIC50,Enterobacter cloacae,0.12 µg/mL
same,MIC90,Enterobacter cloacae,2 µg/mL
same,MIC50,Haemophilus influenzae [11],0.015 µg/mL
same,MIC90,Haemophilus influenzae [11],0.03 µg/mL
same,MIC50,Haemophilus influenzae [12],2 µg/mL
same,MIC90,Haemophilus influenzae [12],2 µg/mL
same,MIC50,Klebsiella oxytoca,0.12 µg/mL
same,MIC90,Klebsiella oxytoca,1 µg/mL
same,MIC50,Klebsiella pneumoniae,0.25 µg/mL
same,MIC90,Klebsiella pneumoniae,4 µg/mL
same,MIC50,Legionella pneumophila,0.03 µg/mL
same,MIC90,Legionella pneumophila,0.03 µg/mL
same,MIC50,Moraxella catarrhalis,0.03 µg/mL
same,MIC90,Moraxella catarrhalis,0.03 µg/mL
same,MIC50,Proteus mirabilis [13],0.25 µg/mL
same,MIC90,Proteus mirabilis [13],16 µg/mL
same,MIC50,Proteus vulgaris,0.12 µg/mL
same,MIC90,Proteus vulgaris,0.25 µg/mL
same,MIC50,Pseudomonas aeruginosa,1 µg/mL
same,MIC90,Pseudomonas aeruginosa,4 µg/mL
same,MIC50,Serratia marcescens [14],0.25 µg/mL
same,MIC90,Serratia marcescens [14],1 µg/mL
same,MIC,[15],0.25 µg/mL
same,Activity,Staphylococcus aureus [16],inactive
same,Activity,Staphylococcus aureus [17],inactive
same,Activity,[18],inactive
same,Activity,[19],inactive
same,Activity,Staphylococcus hominis,inactive
same,Activity,[20],inactive
same,Activity,[21],inactive
same,Activity,Staphylococcus warneri [22],inactive
same,Activity,Citrobacter freundii,inactive
same,Activity,Haemophilus influenzae [23],inactive
same,Activity,Proteus mirabilis [24],inactive
same,Activity,Serratia marcescens [25],inactive
same,MIC,[26],1 µg/mL
C[C@H]1COc2c(N3CCN(C)CC3)c(F)cc3c(=O)c(C(=O)O)cn1c23.C[C@H]1COc2c(N3CCN(C)CC3)c(F)cc3c(=O)c(C(=O)O)cn1c23.O [LEVOFLOXACIN],MIC50,Enterococcus faecalis,1 µg/mL
same,MIC90,Enterococcus faecalis,64 µg/mL
same,MIC50,Enterococcus faecium,32 µg/mL
same,MIC90,Enterococcus faecium,128 µg/mL
same,MIC50,Staphylococcus aureus [1],0.12 µg/mL
same,MIC90,Staphylococcus aureus [1],0.25 µg/mL
same,MIC50,Staphylococcus aureus [2],> 8 µg/mL
same,MIC90,Staphylococcus aureus [2],> 8 µg/mL
same,MIC,[3],0.12 µg/mL
same,MIC50,[3],0.12 µg/mL
same,MIC50,[4],4 µg/mL
same,MIC90,[4],> 8 µg/mL
same,MIC50,[5],0.25 µg/mL
same,MIC90,[5],> 8 µg/mL
same,MIC50,Staphylococcus warneri [6],0.12 µg/mL
same,MIC90,Staphylococcus warneri [6],> 8 µg/mL
same,MIC,Streptococcus agalactiae,0.5 µg/mL
same,MIC50,Streptococcus agalactiae,0.5 µg/mL
same,MIC90,Streptococcus agalactiae,0.5 µg/mL
same,MIC50,[7],0.5 µg/mL
same,MIC90,[7],0.5 µg/mL
same,MIC50,Streptococcus sp.,0.5 µg/mL
same,MIC90,Streptococcus sp.,0.5 µg/mL
same,MIC50,Streptococcus pneumoniae [8],0.5 µg/mL
same,MIC90,Streptococcus pneumoniae [8],0.5 µg/mL
same,MIC50,Streptococcus pneumoniae [9],16 µg/mL
same,MIC90,Streptococcus pneumoniae [9],16 µg/mL
same,MIC50,Streptococcus pyogenes,0.5 µg/mL
same,MIC90,Streptococcus pyogenes,0.5 µg/mL
same,MIC50,Streptococcus equinus,1 µg/mL
same,MIC90,Streptococcus equinus,4 µg/mL
same,MIC50,[10],1 µg/mL
same,MIC90,[10],4 µg/mL
same,MIC50,Streptococcus oralis,1 µg/mL
same,MIC90,Streptococcus oralis,4 µg/mL
same,MIC50,Streptococcus salivarius,1 µg/mL
same,MIC90,Streptococcus salivarius,4 µg/mL
same,MIC50,Streptococcus sanguinis,1 µg/mL
same,MIC90,Streptococcus sanguinis,4 µg/mL
same,MIC50,Acinetobacter lwoffii,0.12 µg/mL
same,MIC90,Acinetobacter lwoffii,4 µg/mL
same,MIC50,Citrobacter koseri,0.03 µg/mL
same,MIC90,Citrobacter koseri,0.12 µg/mL
same,MIC50,Enterobacter cloacae,0.03 µg/mL
same,MIC90,Enterobacter cloacae,0.25 µg/mL
same,MIC50,Haemophilus influenzae [11],0.015 µg/mL
same,MIC90,Haemophilus influenzae [11],0.015 µg/mL
same,MIC50,Haemophilus influenzae [12],8 µg/mL
same,MIC90,Haemophilus influenzae [12],16 µg/mL
same,MIC50,Klebsiella oxytoca,0.03 µg/mL
same,MIC90,Klebsiella oxytoca,0.5 µg/mL
same,MIC50,Klebsiella pneumoniae,0.06 µg/mL
same,MIC90,Klebsiella pneumoniae,2 µg/mL
same,MIC50,Legionella pneumophila,0.03 µg/mL
same,MIC90,Legionella pneumophila,0.03 µg/mL
same,MIC50,Moraxella catarrhalis,0.015 µg/mL
same,MIC90,Moraxella catarrhalis,0.015 µg/mL
same,MIC50,Proteus mirabilis [13],0.03 µg/mL
same,MIC90,Proteus mirabilis [13],8 µg/mL
same,MIC50,Proteus vulgaris,0.03 µg/mL
same,MIC90,Proteus vulgaris,0.06 µg/mL
same,MIC50,Pseudomonas aeruginosa,0.5 µg/mL
same,MIC90,Pseudomonas aeruginosa,1 µg/mL
same,MIC50,Serratia marcescens [14],0.12 µg/mL
same,MIC90,Serratia marcescens [14],0.5 µg/mL
same,MIC,[15],0.12 µg/mL
same,Activity,Staphylococcus aureus [16],100%
same,Activity,Staphylococcus aureus [17],0%
same,Activity,[18],100%
same,Activity,[19],0%
same,Activity,Staphylococcus hominis,30%
same,Activity,[20],66.7%
same,Activity,[21],100%
same,Activity,Staphylococcus warneri [22],74%
same,Activity,Citrobacter freundii,90%
same,Activity,Haemophilus influenzae [23],27.3%
same,Activity,Proteus mirabilis [24],76%
same,Activity,Serratia marcescens [25],100%
same,MIC,[26],4 µg/mL
